Assay results published in publication PMC8244912, “An oxytocin/vasopressin-related neuropeptide modulates social foraging behavior in the clonal raider ant” (PLoS Biology, 2021).
Entries after “also recorded” stand apart in the source; their conditions may differ.

How the values were obtained:
[1] = tested on: HEK293T cells transfected with an empty vector; assay: Calcium flux, HEK293T cells transfected with empty vector; assay type: cell-based, human; settings: ATP 10 μM (cell health control)
Method: (§1) Human embryonic kidney 293T (HEK293T) cells were cultured in DMEM supplemented with 10% FBS at 37°C in a tissue culture incubator with a humidified atmosphere containing 5% CO2. Cells were plated in 10-cm dishes, and, when they reached 60% to 70% confluency, they were transfected with a pcDNA3.3 vector containing approximately 1 ng of inotocin receptor cDNA or an empty vector as a control using Lipofectamine 2000. Cells were transfected directly into poly-D-lysine–coated 384-well plates and incubated for 48 hours at 37°C. Subsequently, cells were incubated with FLIPR Calcium 4 Assay kit dye for 1 hour in the incubator. The fluorescence (excitation, 488 nm; emission, 530 nm) of the wells was recorded using a Flex Station II 384 (Molecular Devices, San Jose, California, USA), and a dose curve of inotocin (0 to 3 μM) was applied to the wells, in sextuplicate (see below for inotocin peptide synthesis). We calculated the EC50 values using Prism (GraphPad Software version 8) nonlinear regression, 4-parameter logistic curve fit. Dose curves were repeated at least 3 times on independently prepared samples and different days. Results were consistent across replicates, and example dose curves are shown in Fig 1C and S4A Fig. Control experiments are shown in S2–S5 Figs.

[2] = target: O. biroi inotocin receptor (ObiroiItr_A) (Ooceraea biroi, UniProt A0A8F5LPT9); assay: Calcium flux, HEK293T cells transfected with full-length inotocin receptor (FLIPR Calcium 4); assay type: cell-based; settings: for calcium response: HEK293T cells expressing full-length itcR; for HillSlope / LogEC50: variable slope
O. biroi inotocin receptor (ObiroiItr_A), sequence (A0A8F5LPT9 entry or part of it): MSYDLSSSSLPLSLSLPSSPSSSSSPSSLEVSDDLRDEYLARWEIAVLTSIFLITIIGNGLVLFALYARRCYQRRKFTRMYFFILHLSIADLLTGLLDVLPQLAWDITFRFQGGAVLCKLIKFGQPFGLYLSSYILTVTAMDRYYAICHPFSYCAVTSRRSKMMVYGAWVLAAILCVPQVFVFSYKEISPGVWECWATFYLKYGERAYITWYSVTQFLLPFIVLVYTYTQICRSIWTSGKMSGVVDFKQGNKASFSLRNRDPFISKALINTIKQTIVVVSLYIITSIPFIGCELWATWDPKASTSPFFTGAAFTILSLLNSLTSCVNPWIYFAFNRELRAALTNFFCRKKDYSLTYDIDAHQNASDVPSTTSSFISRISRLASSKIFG
Description: RNA was isolated in TRIzol using the RNeasy (Qiagen, Germantown, Maryland, USA) purification kit with DNAse I (Qiagen) on-column digestion as in [52] from a sample that contained adult ants, larvae, and pupae and reverse-transcribed into cDNA. Full-length cDNAs for the O. biroi inotocin receptor were PCR amplified with primers 5′-[…]-3′ and 5′-[…]-3′, using the Easy-A high fidelity polymerase (Agilent, Santa Clara, California, USA) to generate PCR products with 5′-Kozak consensus sequences and 3′-A overhangs. The inotocin receptor cDNAs were cloned into the pcDNA3.3 TOPO TA cloning vector (Invitrogen, Waltham, Massachusetts, USA) following manufacturer’s guidelines.
The full-length inotocin receptor cDNA sequence that was cloned and used for calcium assays is ObiroiItr_A (GenBank MW660838; for protein sequence, see S1 Fig). We also tested splice variant ObiroiItr_H (GenBank MW660845; for protein sequence, see S1 Fig), which lacks TM4-7, for calcium activity.
as §1, with “[…],” for “and a dose curve of inotocin (0 to 3 μM) was applied to the wells,”, “days.” for “days. Results were consistent across replicates, and example dose curves are shown in Fig 1C and S4A Fig. Control experiments are shown in S2–S5 Figs.”

[3] = tested on: beetle inotocin receptor; settings: CHO cells; ref Stafflinger, Hansen et al. 2008; cited from earlier work
Description: (§2) We have edited this last sentence of the abstract to: “Inotocin signaling thereby likely contributes to behavioral individuality an ...

[4] = tested on: itcR from Lasius ants; settings: CHO cells; ref Koto, Motoyama et al. 2019; cited from earlier work
Description: as §2

[5] = tested on: HEK293 cells; settings: oxytocin: ref Burger, Fahrenholz et al. 1999, Ma, Hashii et al. 2013, vasopressin: ref Burger; cited from earlier work
Description: as §2

[6] = tested on: untransfected HEK293 cell membranes; settings: ref Jasper, Harrell et al. 1995; cited from earlier work
Description: as §2

| Compound | calcium response [2] | calcium responses of untransfected and mock transfected HEK293 cells [5] | binding of radiolabeled peptide [6] | EC50 [2] [µM] | further results |
| --- | --- | --- | --- | --- | --- |
| Nc1ncnc2c1ncn2[C@@H]1O[C@H](COP(=O)(O)OP(=O)(O)OP(=O)(O)O)[C@@H](O)[C@H]1O [ATP, reference compound] | – | – | – | – | calcium response [1]: are healthy and show calcium responses |
| NRPCGLTCI [scrambled control peptide, scrambled version of inotocin (…) as negative control with identical amino acid composition] | No Ca^2+ influx is detected | – | – | – | – |
| CC[C@H](C)[C@@H]1NC(=O)[C@H](Cc2ccc(O)cc2)NC(=O)[C@@H](N)CSSC[C@@H](C(=O)N2CCC[C@H]2C(=O)N[C@@H](CC(C)C)C(=O)NCC(N)=O)NC(=O)[C@H](CC(N)=O)NC(=O)[C@H](CCC(N)=O)NC1=O [oxytocin] | also elicit calcium responses; also recorded: also produced calcium transients | do not show calcium | do not bind | 0.835 | receptor response [3]: responds; receptor response [4]: respond; HillSlope ([2]; S4B Fig, oxytocin, SE 0.05165, 95% CI 0.5075 to 0.7181): 0.6128; LogEC50 ([2]; S4B Fig, oxytocin, X data log of Molar_Oxytocin, SE 0.0661, 95% CI -6.213 to -5.944): -6.078 |
| N=C(N)NCCC[C@H](NC(=O)[C@@H]1CCCN1C(=O)[C@@H]1CSSC[C@H](N)C(=O)N[C@@H](Cc2ccc(O)cc2)C(=O)N[C@@H](Cc2ccccc2)C(=O)N[C@@H](CCC(N)=O)C(=O)N[C@@H](CC(N)=O)C(=O)N1)C(=O)NCC(N)=O [AVP] | – | do not show calcium | do not bind | 12.6 | calcium response ([2]; listed as vasopressin): also elicit calcium responses; also recorded: also produced calcium transients; LogEC50 ([2]; S4C Fig, AVP, SE 0.09024, 95% CI -5.083 to -4.715): -4.899; HillSlope ([2]; S4C Fig, AVP, SE 0.1917, 95% CI 0.6094 to 1.391): 1 |
